Legend:
DBTRG-05MG cells = assay: Western blot analysis of apoptosis molecules; format: cell-based, human; details: BP 400 μM
Description: DBTRG-05MG cells (human GBM cells) were treated with AS-C (70 μg/ml) for 0, 6, 12, 24 and 48 hours. In another test, DBTRG-05MG cells were treated with BP (400 μM) for 0, 1.5, 3, 6, 12, 24 and 48 hours. The cell pellets were re-suspended in lysis buffer ([…] Tris-HCl, pH 7.5, 1 mM EGTA, 0.5% CHAPS, 10% (v/v) glycerol, 5 mM β-2-mercaptoethanol and 0.1 mM phenylmethylsulfonyl fluoride) and incubated on ice for 30 min, and then centrifuged at 13000×rpm at 4° C. for 20 minutes. The protein concentration of whole cell lysates was measured with BCA protein assay kit (Pierce, Rockford, Ill.) following the manufacturer's instructions. The cell lysates (20 μg/lane) were electrophoresed on 10-12% SDS-PAGE (Bio-Rad, Hercules, Calif.). Proteins were transferred to polyvinyldenefluoride (PVDF) membranes (Amersham Lifesciences, Piscataway, N.J.). The membranes were masked for 1 hour at room temperature with 5% skim milk as the blocking agent, and incubated with the respective antibodies of Fas (FL-335), Fas-L (C-178), caspase 3 (H-277), caspase 8 (H-134), caspase 9 (H-170), Bax (B-9), p16 (F-12), p21 (F-5), p53 (DO-1; 1/100 dilution) (Santa Cruz Biotechnology Inc., CA, U.S.A.), phospho-p53 (Ser15; 1/2000 dilution) and phospho-Rb (Ser795; 1/2000 dilution) (Cell Signaling Technology, MA, USA) for 2 hours at room temperature. Antibody recognition was detected, by incubating the membranes with the respective anti-mouse, anti-rabbit, anti-goat IgG secondary antibodies (1/1000 dilution; Santa Cruz Biotechnology Inc., CA, U.S.A.) conjugated to horseradish peroxidase, for 1 hour at room temperature, and visualized with the ECL Plus chemiluminescence system (Amersham, Arlington Heights, Ill.). For system control, SDS-PAGE gels, for every test sample, were prepared in duplicate, containing the same amount of protein; and the control gel was stained with coomassie blue. The other gel was used for Western Blot analysis. The intensity of the bands was analyzed by densitometry with a GS-800 Calibrated Imaging Densitometer (Quantity One 4.0.3 software; Bio-Rad). […] In addition, the activation of the death receptor-induced apoptosis-related caspases-8 was monitored.

DBTRG-05MG = assay: Cell cycle analysis (PI staining, FACScan) in GBM cells; format: cell-based, human; details: 400 μM BP
Description: Brain tumor cell lines DBTRG-05MG and G5T/VGH were cultured in the growth medium with a diluent. For each test and control, DMSO was added, and the content is less than 0.02% (v/v). For the AS-C and BP treatment, 70 μg/ml of AS-C and 400 μM of BP were added, respectively. All were cultured for 48 hours. The analysis of cell cycle distribution was performed by DNA staining with propidium iodide (PI). Briefly, 2×10^6 adherent cells were detached by trypsinization. The detached cells and the floating dead cells were centrifuged and washed twice with 10 ml of cold 1×PBS (Life Technologies, Inc.). Supernatant was aspirated, cells were re-suspended in 0.8 ml of 1×PBS, and then 200 μl of PI solution (50 μg/ml PI+0.05 mg/ml RNase A; Sigma Chemical Co.) was added, and the cells were refrigerated at 4° C. overnight. The cells were incubated while protected from light at room temperature for at least 2 h before DNA analysis. After staining, DNA was detected and quantified on 20,000 total cells using a FACScan (Becton Dickinson Immunocytometry Systems, San Jose, Calif., USA) and CellQuest analysis software. The G0/G1 phases were gated in M1 (×2); G2/M phases were gated in M2 (×2); the total cells were gated in M3; S phase was M3−(M1(×2)+M2(×2)); Sub G1 phase (apoptosis cells) was gated in M4.

Caco-2 = assay: Cytotoxicity (IC50) on Caco-2; format: cell-based; details: Homo sapiens
Description: Human tumor cell lines (MCF-7, CL1-5, HT-29, Caco-2), human umbilical vascular endothelial cells (HUVEC), and human dermal fibroblasts (HDF) were tested for sensitivity on Angelicae sinensis extracts, ligustilide, n-butylidenephthalide and its derivatives in vitro. The DBTRG-05MG, BCM, HL-60 and J5 cells were grown in RPMI-1640 medium containing 10% fetal calf serum and 100 ng/ml penicillin and […] streptomycin at 37° C. in a humidified atmosphere with 5% CO2. The G5T/VGH, RG2, Ni 8, SVEC and Balb/3T3 cells were cultured in DMEM with 10% fetal calf serum and 100 ng/ml penicillin and […] streptomycin at 37° C. in 5% CO2. Mycoplasma infection of the culture cells was excluded by PCR screening methods before each experiment.
The effects on cell viability after the treatments with different concentrations of the Angelicae sinensis extracts or the active components purified therefrom were evaluated by modified MTT assay in triplicate. Briefly, the cells (5×10^3) were incubated into 96-well plates containing 100 μl of a growth medium. The cells were permitted to adhere for 24 hours, then treated with 100 μl of the herbal extracts or the active components dissolved in the medium. The control contained DMSO of <0.02% (v/v). […] Absorbance at 550 nm of the solutions was measured with MRX Microtiter Plate Luminometer (DYNEX, USA). The absorbance of untreated cells was considered as 100%. […]

Compound: CCCC=C1OC(=O)c2ccccc21 [BP, n-Butylidenephthalide]
- Caspase-3 (DBTRG-05MG cells): increase
- cdk2, cdk4, cdk6 cyclins D1 and cycline E (DBTRG-05MG cells): decrease
- expression of the Fas Ligand (DBTRG-05MG cells): suppressing
- procaspase 8 (DBTRG-05MG cells): declined
- procaspase-3 (DBTRG-05MG cells): declined
- procaspase-9 (DBTRG-05MG cells): declined
- expression of Fas, increase (DBTRG-05MG cells; 1.5 h): 5.2 times
- p53 phosphorylation increase (DBTRG-05MG cells; 1.5 h): 5.2 times
- AIF expression increase (DBTRG-05MG cells; 48 h): 2.4 times
- Bax expression increase (DBTRG-05MG cells; 48 h): 16 times
- Rb phosphorylation decrease (DBTRG-05MG cells; 48 h): 0.2 times
- activated caspase-9 (DBTRG-05MG cells; 48 h): 25.8 times
- activation of caspase 8 (DBTRG-05MG cells; 48 h): 137.9
- expression of Fas, increase (DBTRG-05MG cells; 48 h): 27.9 times
- p16 expression increase (DBTRG-05MG cells; 48 h): 3.1 times
- p21 expression increase (DBTRG-05MG cells; 48 h): 2.3 times
- p53 expression increase (DBTRG-05MG cells; 48 h): 1.4 times
- p53 phosphorylation increase (DBTRG-05MG cells; 48 h): 9.2 times
- cell cycle accumulation at G0/G1 phase (DBTRG-05MG): > 90%
- IC50 (Caco-2; Table 1, value in parentheses): > 106 µM
- IC50 (Caco-2; cancer cells, Table 1): > 20 µg/mL
